Test results as given in article PMC11087588, “Genetic and functional diversity of β-N-acetylgalactosamine-targeting glycosidases expanded by deep-sea metagenome analysis” (Nature Communications, 2024).

Tests used:
NgaDssm = target: T1, NgaDssm (metagenome, UniProt Z9PL66MBS5); test: crystal structure of complex; type: binding; settings: 5 mM ligand in crystallization; active site, oxazolinium intermediate analogue
T1 construct: signal peptide removed; pET-47b(+), E. coli BL21 Star (DE3); His tag cut with HRV3C; monomer
T1 sequence (Z9PL66MBS5 4-542): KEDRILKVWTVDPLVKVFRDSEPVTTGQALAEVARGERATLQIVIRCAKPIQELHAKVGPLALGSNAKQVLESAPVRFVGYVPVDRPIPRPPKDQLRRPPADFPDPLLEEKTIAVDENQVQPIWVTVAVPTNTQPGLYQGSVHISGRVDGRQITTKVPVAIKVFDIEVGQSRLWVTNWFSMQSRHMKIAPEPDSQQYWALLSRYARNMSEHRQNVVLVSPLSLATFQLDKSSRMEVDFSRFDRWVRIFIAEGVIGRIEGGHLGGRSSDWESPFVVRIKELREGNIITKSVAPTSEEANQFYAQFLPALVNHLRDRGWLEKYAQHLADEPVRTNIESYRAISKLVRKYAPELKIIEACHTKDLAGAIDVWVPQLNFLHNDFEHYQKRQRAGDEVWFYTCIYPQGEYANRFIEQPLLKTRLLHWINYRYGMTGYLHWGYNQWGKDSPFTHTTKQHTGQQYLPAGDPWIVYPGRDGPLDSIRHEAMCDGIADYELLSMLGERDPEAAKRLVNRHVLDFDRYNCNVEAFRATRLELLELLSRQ

NgaP2 = target: T2, NgaP2 (Paenibacillus sp. TS12, UniProt A0AAT8XUB3); test: crystal structure of complex; type: binding; settings: 5 mM ligand in crystallization; active site, oxazolinium intermediate analogue
T2 construct: cloned from genomic DNA, pET-47b(+), E. coli BL21 Star (DE3); His tag cut with HRV3C; monomer; not the GH123 NgaP of the same strain
T2 sequence (A0AAT8XUB3 4-581): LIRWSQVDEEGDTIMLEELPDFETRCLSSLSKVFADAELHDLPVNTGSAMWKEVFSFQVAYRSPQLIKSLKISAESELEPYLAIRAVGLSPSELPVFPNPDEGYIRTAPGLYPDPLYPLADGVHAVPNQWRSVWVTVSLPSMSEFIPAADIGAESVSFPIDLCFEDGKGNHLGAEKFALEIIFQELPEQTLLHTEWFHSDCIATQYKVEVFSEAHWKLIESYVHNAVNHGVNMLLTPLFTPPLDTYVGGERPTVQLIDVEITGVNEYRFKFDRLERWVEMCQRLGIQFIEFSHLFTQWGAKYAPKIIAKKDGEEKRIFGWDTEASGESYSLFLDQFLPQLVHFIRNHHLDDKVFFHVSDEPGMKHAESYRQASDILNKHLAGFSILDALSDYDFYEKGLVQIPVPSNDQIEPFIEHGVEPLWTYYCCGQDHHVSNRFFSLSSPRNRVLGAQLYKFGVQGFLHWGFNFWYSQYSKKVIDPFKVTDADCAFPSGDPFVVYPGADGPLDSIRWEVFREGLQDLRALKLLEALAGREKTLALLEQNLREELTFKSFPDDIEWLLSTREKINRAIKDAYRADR

CC1=N[C@@H]2[C@@H](O)[C@@H](O)[C@@H](CO)O[C@@H]2S1 [GalNAc-thiazoline]
crystal structure of complex (NgaDssm): the structures of the NgaAt, NgaDssm, and NgaP2 complexes with GalNAc-thiazoline were successfully characterized
crystal structure of complex (NgaP2): the structures of the NgaAt, NgaDssm, and NgaP2 complexes with GalNAc-thiazoline were successfully characterized
